A word on the IC50: it is the point on the concentration scale where inhibition reaches its midpoint. A low value points to higher potency.

One compound from article PMC5847527, “Identification of a novel 2-oxindole fluorinated derivative as in vivo antitumor agent for prostate cancer acting via AMPK activation” (Scientific Reports, 2018) can be followed below.

What all share (type): cell-based, human
In test [1] the test system is AMPK. The experiment in a line: AMPK and ACC phosphorylation by Western blot in LNCaP cells. The note with it: 25 µM, 1 hour. As to the method:
Figure 2 Effect of 2-oxindole fluorinated derivatives on AMPK activity in prostate cancer cells. (A) PC-3, DU145 and LNCaP cells were treated with 25 µM of the selected 2-oxindole fluorinated derivatives for 1 hour. Levels of the phosphorylated AMPK (pAMPK), phosphorylated ACC (pACC) and their total forms were determined by Western blot. Upper panel, a representative Western blot of three different experiments. β-tubulin (β-Tub) serves as a loading control. […] Lower panels, densitometric analyses of bands represented as the mean of the ratio pAMPK/AMPK or pACC/ACC ± SD of three different experiments. *p < 0.05 compared with the controls by one-way ANOVA followed by Fisher’s LSD test; ^#p < 0.05 compared with 2-oxindole fluorinated derivates or with the AMPK activators AMP or A769662 by one-way ANOVA followed by Tukey test.
Similar results were obtained although AMPK stimulation by compound 8c was not so strong (Fig. 2A). […]
Cells were lysed in Lysis buffer (50 mM Tris pH 7.4, 0.8 M NaCl, 5 mM MgCl2, 0.1% Triton X-100) containing Protease Inhibitor and Phosphatase inhibitor Cocktails (Roche, Basel, Switzerland). Protein concentrations were measured by BioRad™ protein assay kit (Richmond, CA, USA). […] Films were analyzed by densitometry. […]
In general terms: Immunoblotting shows a protein as a band on a membrane.

For test [2], the system named is RWPE-1 cells. The experiment in a line: Cell viability by MTT assay, RWPE-1 normal prostate cells. As to the method: Figure 3 Comparison of the effect of 2-oxindole fluorinated derivatives on the proliferation of human prostate cancer cells. (A) Normal (PTN2 and RWPE-1) and cancer (PC3,DU145 and LNCaP) prostate cells were treated with different doses of the compounds for 24 hours and cell viability was monitored by MTT assay. […] (C) PC-3, DU145 and LNCaP cells were treated with 25 µM of compound 8c for different times. Values were normalized with the control and represent the mean ± SD of at least three independent experiments. *p < 0.05 and **p < 0.01 compared to control by the Student’s - test.
Human prostate cancer epithelial PC-3, DU145 and LNCaP and human prostate normal RWPE-1 cells were purchased from American Type Culture Collection (ATCC CRL-1435 CRL-1740 and CRL 11609 respectively) (Rockville, MD, USA). The human prostate normal PNT2 cell line was purchased to ECACC (European Collection of Cell cultures, Salisbury, SP4 0JG, UK). Cells were routinely grown in RPMI 1640 medium supplemented with 100 IU/ml penicillin G sodium, 100 µg/ml streptomycin sulfate, 0.25 µg/ml amphotericin B (Invitrogen, Paisley, UK) and 10% fetal calf serum. Cells were used at passages between 10–20. For treatment experiments, cells were plated and grown over night, the medium was then replaced with serum-free RPMI 1640 for 24 hours and then incubated with different doses of the compounds for the indicated times.
Cell viability was determined by 3-(4,5-dimethylthiazol-2-yl)-2,5-diphenyltetrazolium bromide (MTT) (Sigma-Aldrich) method. […] The optical density in each well was evaluated by measurement of absorbance at 490 and 650 nm using a microplate reader (ELX 800 Bio-Tek Intruments, INC). IC50 values were calculated using GraphPad Prism vs 6.0 (GraphPad Software, Inc, La Jolla, CA, USA). Cell viability was also determined by counting viable and dead cells by Trypan blue staining. Trypan blue positive and negative cells were counted using a Countess^TM automated cell counter (Invitrogen, Carlsbad, CA, USA). Results were expressed in relation to total number of cells counted.
On the technique in general: Tetrazolium assays rely on reduction of a dye to a coloured formazan, in cell work by metabolically active cells.

Test [3] relates to LNCaP cells. Kind of test: Cell cycle analysis by flow cytometry (Propidium Iodide), LNCaP. Conditions: 24 h, 25 μM and 50 μM. As to the method: For that, we treated PC-3 and LNCaP cells with 25 μM and 50 μM of compound 8c for 24 h and performed cell cycle analysis by flow cytometry using Propidium Iodide (PI). […] It is worthy to note that when PC-3 cells were treated with compound 8c, 80% of cells were in subG0 phase (Fig. 4A).
Figure 4 Cell Cycle analysis in 8c-treated prostate cancer cells. (A) PC-3 and LNCaP cells were treated with compound 8c for 24 hours and cell cycle analysis was analyzed by flow cytometry using Propidium Iodide (PI). Percentage of cells in subG0, G1, S, and G2/M phases is indicated in the histogram. (B) Levels of Cyclin D1, p-p53, p53, p21 and cleaved Caspase 3 (17 kDa fragment) were determined by Western blot. Upper panel, representative Western blot of two different experiments. β-tubulin (β-Tub) serves as a loading control. Lower panel, the densitometric analyses of bands represented as the mean ± SD of the two different experiments. *p < 0.05 and **p < 0.01 compared with the control group by the Student’s t-test.
Flow cytometry was used to detect the distribution of cell cycle. After being cultivated with the treatment, 10^5 cells in 35 mm culture dish were harvested in 0.35% trypsin, collected and fixed with 70% cold ethanol at 4 °C for 1 h. Then, cells were centrifuged at 1500 g for 5 min and incubated in 0.5 ml PBS containing 0.1 mg/ml RNase for 30 min at 37 °C. […]
On the technique in general: A flow cytometer gives signals particle by particle.

Regarding `O=C1Nc2ccccc2C1(F)Cc1ccc(-c2ccccc2)o1` (stereo not shown) [Compound 8c, 3-fluoro-3-((5-phenylfuran-2-yl)methyl)indolin-2-one], the “AMPK phosphorylation (pAMPK/AMPK)” value in test [1] was “notably activated AMPK”. This compound also displayed an IC50 in test [2] (Homo sapiens, RWPE-1, MTT, 24 hours) of more than 1000 µM. Further, the “inhibitory efficacy on cells viability at 50 μM” value in test [2] (RWPE-1, 50 μM) was 50%. For the same compound, in test [3], the subG0 cells result is “increase in subG0 cells”.
